Source: PubChem BioAssay (NCI)
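GI50 = concentration required for 50% inhibition of growth. At the TGI there is no net growth.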

Key:
Test in all cases: growth of human tumour cells (NCI), 384-well format
MCF7 breast = test system: MCF7 breast
SK-MEL-2 melanoma = test system: SK-MEL-2 melanoma
MOLT-4 leukemia = test system: MOLT-4 leukemia
SF-539 CNS = test system: SF-539 CNS
NCI/ADR-RES ovarian = test system: NCI/ADR-RES ovarian
SF-268 CNS = test system: SF-268 CNS
SK-OV-3 ovarian = test system: SK-OV-3 ovarian
TK-10 renal = test system: TK-10 renal
NCI-H23 lung = test system: NCI-H23 lung
HCT-116 colon = test system: HCT-116 colon
HCC-2998 colon = test system: HCC-2998 colon
MALME-3M melanoma = test system: MALME-3M melanoma
SNB-75 CNS = test system: SNB-75 CNS

CNC(=O)c1ccccc1Nc1nc(Nc2ccc3c(c2OC)CCC[C@H](N2CCN(CCO)CC2)C3)ncc1Cl
GI50 (MCF7 breast): 244 nM | TGI (MCF7 breast): 1520 nM | GI50 (SK-MEL-2 melanoma): 304 nM | TGI (SK-MEL-2 melanoma): 1050 nM | GI50 (MOLT-4 leukemia): 1280 nM | TGI (MOLT-4 leukemia): 2560 nM | GI50 (SF-539 CNS): 1500 nM | TGI (SF-539 CNS): 2930 nM | GI50 (NCI/ADR-RES ovarian): 2120 nM | TGI (NCI/ADR-RES ovarian): 4370 nM | GI50 (SF-268 CNS): 1550 nM | TGI (SF-268 CNS): 3020 nM | GI50 (SK-OV-3 ovarian): 740 nM | TGI (SK-OV-3 ovarian): 2300 nM | GI50 (TK-10 renal): 783 nM | TGI (TK-10 renal): 2480 nM | GI50 (NCI-H23 lung): 673 nM | TGI (NCI-H23 lung): 2320 nM | GI50 (HCT-116 colon): 934 nM | TGI (HCT-116 colon): 2320 nM | GI50 (HCC-2998 colon): 1210 nM | TGI (HCC-2998 colon): 2550 nM | GI50 (MALME-3M melanoma): 414 nM | TGI (MALME-3M melanoma): 1450 nM | GI50 (SNB-75 CNS): 1430 nM | TGI (SNB-75 CNS): 3220 nM
